PubChem BioAssay AID330 (DTP/NCI, 2004)
Values joined by “and” are separate entries in the source; they are usually repeats but may differ in a detail not shown here. Equal entries are not always repeated. Inconclusive results and toxic doses are left out.

Tested on: P388 leukemia ip, CD2F1 mice, survival T/C
Assay: NCI In Vivo Anticancer Drug Screen. Data for tumor model P388 Leukemia (intraperitoneal) in CD2F1 (CDF1) mice
Details: endpoint: median survival time, higher = longer survival
How it was run: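 Mice carrying the transplanted tumor received test compound or vehicle. Survival was recorded in each group, and the value is the treated-group measurement divided by that of the vehicle-treated control group.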

[1] = dose: 12.5 mg/kg/injection, schedule: Q01DX009 (ip), vehicle: saline
[2] = dose: 25.0 mg/kg/injection, schedule: Q01DX009 (ip), vehicle: saline
[3] = dose: 50.0 mg/kg/injection, schedule: Q01DX005 (ip), vehicle: Klucel (hydroxypropylcellulose) (HPC)
[4] = dose: 100.0 mg/kg/injection, schedule: Q01DX005 (ip), vehicle: Klucel (hydroxypropylcellulose) (HPC)
[5] = dose: 200.0 mg/kg/injection, schedule: Q01DX005 (ip), vehicle: Klucel (hydroxypropylcellulose) (HPC)
[6] = dose: 12.5 mg/kg/injection, schedule: Q01DX009 (ip), vehicle: Klucel (hydroxypropylcellulose) (HPC)
[7] = dose: 25.0 mg/kg/injection, schedule: Q01DX009 (ip), vehicle: Klucel (hydroxypropylcellulose) (HPC)
[8] = dose: 50.0 mg/kg/injection, schedule: Q01DX009 (ip), vehicle: saline with Tween-80
[9] = dose: 100.0 mg/kg/injection, schedule: Q01DX009 (ip), vehicle: saline with Tween-80
[10] = dose: 12.5 mg/kg/injection, schedule: Q01DX009 (ip), vehicle: saline with Tween-80
[11] = dose: 25.0 mg/kg/injection, schedule: Q01DX009 (ip), vehicle: saline with Tween-80
[12] = dose: 60.0 mg/kg/injection, schedule: Q01DX005 (ip), vehicle: saline with Tween-80
[13] = dose: 100.0 mg/kg/injection, schedule: Q01DX001 (ip), vehicle: saline with Tween-80
[14] = dose: 200.0 mg/kg/injection, schedule: Q01DX001 (ip), vehicle: saline with Tween-80
[15] = dose: 400.0 mg/kg/injection, schedule: Q01DX001 (ip), vehicle: saline with Tween-80
[16] = dose: 50.0 mg/kg/injection, schedule: Q01DX009 (ip), vehicle: Klucel (hydroxypropylcellulose) (HPC)
[17] = dose: 100.0 mg/kg/injection, schedule: Q01DX009 (ip), vehicle: Klucel (hydroxypropylcellulose) (HPC)
[18] = dose: 200.0 mg/kg/injection, schedule: Q01DX009 (ip), vehicle: Klucel (hydroxypropylcellulose) (HPC)
[19] = dose: 120.0 mg/kg/injection, schedule: Q01DX005 (ip), vehicle: saline with Tween-80
[20] = dose: 240.0 mg/kg/injection, schedule: Q01DX005 (ip), vehicle: saline with Tween-80

O=C(O)c1cc2ccc(Cl)cc2[se]1 was tested, and the T/C [1] was 89 % of control, the T/C [2] was 105 % of control and the T/C (dose: 50.0 mg/kg/injection, schedule: Q01DX009 (ip), vehicle: saline) was 106 % of control and 88 % of control. The T/C (dose: 200.0 mg/kg/injection, schedule: Q01DX009 (ip), vehicle: saline) was 91 % of control.
In the case of CCC(=O)Nc1ccc(C(=O)NCCN(CC)CC)cc1, the T/C [3] is reported as 105 % of control, the T/C [4] is reported as 104 % of control and the T/C [5] is reported as 100 % of control.
For [Br][Sn]([CH2]CC[CH2][Sn]([Br])([c]1ccccc1)[c]1ccccc1)([c]1ccccc1)[c]1ccccc1, the T/C [3] was 93 % of control and the T/C [4] was 100 % of control.
For CC(=O)Nc1ccc2nc(SC(C)C)sc2c1, the T/C (dose: 6.25 mg/kg/injection, schedule: Q01DX009 (ip), vehicle: Klucel (hydroxypropylcellulose) (HPC)) was 104 % of control, the T/C [6] was 102 % of control and the T/C [7] was 96 % of control.
With CCOP(=O)(OCC)OC(C)CC1CO1 (stereo not given) the T/C (dose: 100.0 mg/kg/injection, schedule: Q04DX002 (ip), vehicle: saline) was 100 % of control, the T/C (dose: 200.0 mg/kg/injection, schedule: Q04DX002 (ip), vehicle: saline) was 98 % of control and the T/C (dose: 400.0 mg/kg/injection, schedule: Q04DX002 (ip), vehicle: saline) was 103 % of control.
CC(C)N(C(C)C)P1(=S)N(C(C)(C)C)N=NN1C(C)(C)C was tested, and the T/C [3] was 91 % of control, the T/C [4] was 101 % of control and the T/C [5] was 91 % of control.
With CCOC(=O)Oc1ccc(CC([NH-])C(=O)O)cc1.CCOC(=O)Oc1ccc(CC([NH-])C(=O)O)cc1.[Cu+2] (stereo not given) the T/C (dose: 6.25 mg/kg/injection, schedule: Q01DX009 (ip), vehicle: saline) was 100 % of control, the T/C [1] was 100 % of control and the T/C [2] was 100 % of control.
N#CSCCSC#N was tested, and the T/C (dose: 6.25 mg/kg/injection, schedule: Q04DX002 (ip), vehicle: Klucel (hydroxypropylcellulose) (HPC)) was 100 % of control and the T/C (dose: 12.5 mg/kg/injection, schedule: Q04DX002 (ip), vehicle: Klucel (hydroxypropylcellulose) (HPC)) was 97 % of control.
COc1ccccc1OCC(=O)c1ccccc1 was tested, and the T/C (dose: 10.0 mg/kg/injection, schedule: Q01DX005 (ip), vehicle: Klucel (hydroxypropylcellulose) (HPC)) was 102 % of control, the T/C (dose: 20.0 mg/kg/injection, schedule: Q01DX005 (ip), vehicle: Klucel (hydroxypropylcellulose) (HPC)) was 96 % of control and the T/C (dose: 40.0 mg/kg/injection, schedule: Q01DX005 (ip), vehicle: Klucel (hydroxypropylcellulose) (HPC)) was 100 % of control.
O=C1NC(c2ccccc2)C(c2ccccc2)(c2ccccc2)O1 (stereo not given) was tested, and the T/C [8] was 93 % of control and the T/C [9] was 86 % of control.
With CCOC(=O)C12C3CC4C1C1(Cl)C(Cl)(Cl)C2(Cl)C2(Cl)C3C4C12Cl (stereo not given) the T/C (dose: 100.0 mg/kg/injection, schedule: Q04DX002 (ip), vehicle: saline with Tween-80) was 94 % of control, the T/C (dose: 200.0 mg/kg/injection, schedule: Q04DX002 (ip), vehicle: saline with Tween-80) was 93 % of control and the T/C (dose: 400.0 mg/kg/injection, schedule: Q04DX002 (ip), vehicle: saline with Tween-80) was 109 % of control.
In the case of Nc1ccc2cc(Cl)[nH]c(=O)c2c1, the T/C [3] is reported as 100 % of control, the T/C [4] is reported as 94 % of control and the T/C [5] is reported as 97 % of control.
CN(C)c1ccc(/C=C/c2ccnc3cc(Cl)ccc23)cc1 was tested, and the T/C [10] was 106 % of control, the T/C [11] was 116 % of control and the T/C [8] was 119 % of control.
With O=C(Nc1cc(Cl)c(Cl)cc1Cl)OCc1ccc2c(c1)OCO2 the T/C (dose: 15.0 mg/kg/injection, schedule: Q01DX005 (ip), vehicle: saline with Tween-80) was 100 % of control, the T/C (dose: 30.0 mg/kg/injection, schedule: Q01DX005 (ip), vehicle: saline with Tween-80) was 94 % of control and the T/C [12] was 89 % of control and 91 % of control.
CCCCN(CCCC)CCC(=O)OCC was tested, and the T/C (dose: 100.0 mg/kg/injection, schedule: Q04DX003 (ip), vehicle: saline with Tween-80) was 104 % of control, the T/C (dose: 200.0 mg/kg/injection, schedule: Q04DX003 (ip), vehicle: saline with Tween-80) was 100 % of control and the T/C (dose: 400.0 mg/kg/injection, schedule: Q04DX003 (ip), vehicle: saline with Tween-80) was 109 % of control.
With CCCCCCC(=O)/C=C/c1ccccc1OC(=O)c1ccc(Cl)cc1 the T/C [11] was 101 % of control, the T/C [8] was 88 % of control and 90 % of control and the T/C [9] was 95 % of control. For the same compound, the T/C (dose: 200.0 mg/kg/injection, schedule: Q01DX009 (ip), vehicle: saline with Tween-80) was 94 % of control.
OCC1OC(n2ncc3nccnc32)C(O)C1O (stereo not given) was tested, and the T/C (dose: 32.0 mg/kg/injection, schedule: Q01DX002 (ip), vehicle: saline with Tween-80) was 98 % of control and 114 % of control, the T/C (dose: 64.0 mg/kg/injection, schedule: Q01DX002 (ip), vehicle: saline with Tween-80) was 98 % of control and 109 % of control and the T/C (dose: 128.0 mg/kg/injection, schedule: Q01DX002 (ip), vehicle: saline with Tween-80) was 112 % of control and 114 % of control.
In the case of OCCC(CCN1CCOCC1)(c1ccccc1)C1(O)CCCC1 (stereo not given), the T/C (dose: 60.0 mg/kg/injection, schedule: Q01DX005 (ip), vehicle: saline) is reported as 95 % of control, the T/C (dose: 120.0 mg/kg/injection, schedule: Q01DX005 (ip), vehicle: saline) is reported as 98 % of control and the T/C (dose: 240.0 mg/kg/injection, schedule: Q01DX005 (ip), vehicle: saline) is reported as 92 % of control.
For C=C1C(=O)OC2C1C(O)C(OC(=O)/C(C)=C/C)C(C)C1C(=O)C=C(C)C21 (stereo not given), the T/C (dose: 6.25 mg/kg/injection, schedule: Q01DX005 (ip), vehicle: Klucel (hydroxypropylcellulose) (HPC)) was 107 % of control, the T/C (dose: 12.5 mg/kg/injection, schedule: Q01DX005 (ip), vehicle: Klucel (hydroxypropylcellulose) (HPC)) was 114 % of control and the T/C (dose: 25.0 mg/kg/injection, schedule: Q01DX005 (ip), vehicle: Klucel (hydroxypropylcellulose) (HPC)) was 115 % of control.
In the case of O=C1NC(=O)C2C3C=CC(C12)C1C2C(=O)NC(=O)C2C31 (stereo not given), the T/C (dose: 12.5 mg/kg/injection, schedule: Q01DX009 (ip), vehicle: distilled water + Tween-80) is reported as 116 % of control, the T/C (dose: 25.0 mg/kg/injection, schedule: Q01DX009 (ip), vehicle: distilled water + Tween-80) is reported as 153 % of control and the T/C (dose: 30.0 mg/kg/injection, schedule: Q01DX009 (ip), vehicle: water) is reported as 163 % of control. The T/C (dose: 50.0 mg/kg/injection, schedule: Q01DX009 (ip), vehicle: distilled water + Tween-80) was 193 % of control, the T/C [13] was 96 % of control and the T/C [14] was 109 % of control. For the same compound, the T/C [15] was 119 % of control.
In the case of Nc1ncncc1-c1ccc2ccccc2c1, the T/C [16] is reported as 95 % of control, the T/C [17] is reported as 92 % of control and the T/C [18] is reported as 96 % of control.
In the case of O=C(Nc1nn[nH]n1)c1nc(-c2ccccc2)cc(=O)[nH]1, the T/C [12] is reported as 101 % of control, the T/C [19] is reported as 101 % of control and the T/C [20] is reported as 86 % of control.
With Fc1ccc(Nc2c3ccccc3nc3ccccc23)cc1 the T/C [10] was 110 % of control and the T/C [11] was 120 % of control.
In the case of O=C(Nc1ccc(F)cc1)NN1CCOCC1, the T/C [12] is reported as 102 % of control, the T/C [19] is reported as 104 % of control and the T/C [20] is reported as 103 % of control.
For Nc1ccc(OCCNC(=O)c2ccc(S(=O)(=O)F)cc2)c(Cl)c1, the T/C [13] was 90 % of control, the T/C [14] was 100 % of control and the T/C [15] was 104 % of control.
In the case of COC(=O)C1CCC=CC1Sc1ccccc1 (stereo not given), the T/C [16] is reported as 105 % of control, the T/C [17] is reported as 106 % of control and the T/C [18] is reported as 112 % of control.
For COc1cc2c(cc1OC)[C@@]1(C[C@H]1CO)OCC2, the T/C (dose: 100.0 mg/kg/injection, schedule: Q04DX002 (ip), vehicle: Klucel (hydroxypropylcellulose) (HPC)) was 100 % of control, the T/C (dose: 200.0 mg/kg/injection, schedule: Q04DX002 (ip), vehicle: Klucel (hydroxypropylcellulose) (HPC)) was 98 % of control and the T/C (dose: 400.0 mg/kg/injection, schedule: Q04DX002 (ip), vehicle: Klucel (hydroxypropylcellulose) (HPC)) was 95 % of control.
Cc1c2c(cc3c1[nH]c1ccccc13)C(c1ccc(Cl)cc1)=NCC2 was tested, and the T/C [6] was 99 % of control, the T/C [7] was 101 % of control and the T/C [16] was 96 % of control. The T/C [17] was 96 % of control.
COc1ccc(NC(=O)C2C(=O)N(c3ccc(OC)cc3)C(=O)/C2=N/NC(N)=S)cc1 (stereo not given) was tested, and the T/C (dose: 12.5 mg/kg/injection, schedule: Q01DX005 (ip), vehicle: saline with Tween-80) was 101 % of control, the T/C (dose: 25.0 mg/kg/injection, schedule: Q01DX005 (ip), vehicle: saline with Tween-80) was 100 % of control and the T/C (dose: 50.0 mg/kg/injection, schedule: Q01DX005 (ip), vehicle: saline with Tween-80) was 100 % of control and 90 % of control.
